Laboratory results from patent US8110681B2, “Compounds for the treatment of spinal muscular atrophy and other uses” (The United States of America as represented by the …, priority 2006, dated 2012).
Where two headings read alike, the source gives them in different places.

System: SMN2-linked luciferase-reporter gene construct
Assay: SMN splice reporter assay (SMN2-linked luciferase reporter, Example 10)
Assay type: cell-based
Conditions: for maximal fold induction: read-out: SMN Splice Reporter Assay (Example 10) Avg MaxFold Increase
In short: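 Values are fold-increase in luciferase signal relative to baseline cells without compound. The cervical carcinoma line used holds a fusion of alternatively spliced SMN2 sequence and luciferase. Readable frame, and thus signal, arises only with exon 7-including splicing.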

[1] = SMN2-linked luciferase reporter, average
[2] = maximum fold increase of reporter signal, average

Row | Structure (SMILES) | EC50 [1] [nM] | maximal fold induction [2] | maximal fold induction (SMN2-linked luciferase reporter, average maximum fold increase)
1 | C[C@H](C(=O)O)c1ccc(N2Cc3ccccc3C2=O)cc1 [ALB-112837] | 8540 | 1.4 | –
2 | CC(C(=O)O)c1ccc(N2CC3=C(CC=CC3)C2=O)cc1 (stereo not shown) [ALB-112896] | 1010 | 1.58 | –
3 | CC(C(=O)O)c1ccc(N2CC3CCCCC3C2=O)cc1 (stereo not shown) [ALB-112901] | 5820 | 1.49 | –
4 | C[C@@H](C(=O)O)c1ccc(N2Cc3ccccc3C2=O)cc1 [ALB-112941] | 280 | 1.48 | –
5 | CC(C(=O)O)c1ccc(N2CC3=C(CCCC3)C2=O)cc1 (stereo not shown) [ALB-112951] | 279 | 1.79 | –
6 | Cc1ccc2c(c1)C(=O)N(c1ccc(C(C)C(=O)O)cc1)C2 (stereo not shown) [ALB-112954] | 330 | 1.62 | –
7 | C/C=C\c1ccc2c(c1)C(=O)N(c1ccc(C(C)C(=O)OC(C)(C)C)cc1)C2 (stereo not shown) [ALB-113000] | 3740 | 1.31 | –
8 | C=Cc1ccc2c(c1)CN(c1ccc(C(C)C(=O)OC(C)(C)C)cc1)C2=O (stereo not shown) [ALB-113100] | 101 | 1.05 | –
9 | CCOc1ccc2c(c1)C(=O)N(c1ccc(C(C)C(=O)OC(C)(C)C)cc1)C2 (stereo not shown) [ALB-113101] | 242 | 1.38 | –
10 | CCOc1ccc2c(c1)C(=O)N(c1ccc(C(C)C(=O)O)cc1)C2 (stereo not shown) [ALB-113102] | 62 | 1.83 | –
11 | CC(C(=O)O)c1ccc(N2Cc3ccc(O)cc3C2=O)cc1 (stereo not shown) [ALB-113103] | – | 1.04 | –
12 | C=Cc1ccc2c(c1)C(=O)N(c1ccc(C(C)C(=O)OC(C)(C)C)cc1)C2 (stereo not shown) [ALB-113210] | 2880 | 1.15 | –
13 | CCc1ccc2c(c1)C(=O)N(c1ccc(C(C)C(=O)OC(C)(C)C)cc1)C2 (stereo not shown) [ALB-113211] | 786 | 1.37 | –
14 | CCc1ccc2c(c1)C(=O)N(c1ccc(C(C)C(=O)O)cc1)C2 (stereo not shown) [ALB-113212] | 103 | 1.87 | –
15 | CC(CO)c1ccc(N2Cc3ccccc3C2=O)cc1 (stereo not shown) [ALB-113309] | 144 | 1.19 | –
16 | CC(=O)c1ccc2c(c1)C(=O)N(c1ccc(C(C)C(=O)O)cc1)C2 (stereo not shown) [ALB-113387] | 50 | 1.18 | –
17 | CCCCCc1ccc2c(c1)C(=O)N(c1ccc(C(C)C(=O)O)cc1)C2 (stereo not shown) [ALB-113388] | 1120 | 1.77 | –
18 | COCC(C)c1ccc(N2Cc3ccccc3C2=O)cc1 (stereo not shown) [ALB-113389] | 179 | 1.34 | –
19 | C=Cc1ccc2c(c1)CN(c1ccc(C(C)C(=O)O)cc1)C2=O (stereo not shown) [ALB-113390] | 10400 | 1.29 | –
20 | CCOc1cccc2c1C(=O)N(c1ccc(C(C)C(=O)O)cc1)C2 (stereo not shown) [ALB-113391] | 15300 | 1.46 | –
21 | CC(C)Oc1cccc2c1C(=O)N(c1ccc(C(C)C(=O)O)cc1)C2 (stereo not shown) [ALB-113392] | 4860 | 1.65 | –
22 | C=Cc1cccc2c1C(=O)N(c1ccc(C(C)C(=O)O)cc1)C2 (stereo not shown) [ALB-113393] | 209 | 1.21 | –
23 | CCc1cccc2c1C(=O)N(c1ccc(C(C)C(=O)O)cc1)C2 (stereo not shown) [ALB-113395] | 1840 | 1.49 | –
24 | CCc1ccc2c(c1)CN(c1ccc(C(C)C(=O)O)cc1)C2=O (stereo not shown) [ALB-113490] | 218 | 1.48 | –
25 | CCCCCc1ccc2c(c1)CN(c1ccc(C(C)C(=O)O)cc1)C2=O (stereo not shown) [ALB-113491] | – | 1.12 | –

Row | Structure (SMILES) | EC50 [1] [nM] | maximal fold induction [2] | maximal fold induction (SMN2-linked luciferase reporter, average maximum fold increase)
26 | CC(C)Oc1ccc2c(c1)C(=O)N(c1ccc(C(C)C(=O)O)cc1)C2 (stereo not shown) [ALB-113492] | 24 | 1.67 | –
27 | CC(C(=O)O)c1ccc(N2Cc3ccc(OC4CCCC4)cc3C2=O)cc1 (stereo not shown) [ALB-113493] | 81 | 1.89 | –
28 | CCCCCOc1ccc2c(c1)C(=O)N(c1ccc(C(C)C(=O)O)cc1)C2 (stereo not shown) [ALB-113494] | 1170 | 1.75 | –
29 | CCCCCCc1cccc2c1C(=O)N(c1ccc(C(C)C(=O)O)cc1)C2 (stereo not shown) [ALB-113495] | 18300 | 1.35 | –
30 | CC(=O)c1cccc2c1C(=O)N(c1ccc(C(C)C(=O)O)cc1)C2 (stereo not shown) [ALB-113496] | – | 1.18 | –
31 | CCCCCc1cccc2c1C(=O)N(c1ccc(C(C)C(=O)O)cc1)C2 (stereo not shown) [ALB-113497] | – | 1.18 | –
32 | CC(C(=O)O)c1ccc(N2Cc3cc(O)ccc3C2=O)cc1 (stereo not shown) [ALB-113560] | – | 1.05 | –
33 | CC(C)c1ccc2c(c1)CN(c1ccc(C(C)C(=O)O)cc1)C2=O (stereo not shown) [ALB-113561] | – | 1.21 | –
34 | CC(C)c1ccc2c(c1)C(=O)N(c1ccc(C(C)C(=O)O)cc1)C2 (stereo not shown) [ALB-113563] | 55 | 1.8 | –
35 | CCCc1ccc2c(c1)CN(c1ccc(C(C)C(=O)O)cc1)C2=O (stereo not shown) [ALB-113564] | – | 1.05 | –
36 | CC(C)c1cccc2c1C(=O)N(c1ccc(C(C)C(=O)O)cc1)C2 (stereo not shown) [ALB-113565] | – | 1.19 | –
37 | CC(C(=O)O)c1ccc(N2Cc3cccc(OC4CCCC4)c3C2=O)cc1 (stereo not shown) [ALB-113566] | 5150 | 1.96 | –
38 | CC(C(=O)O)c1ccc(N2Cc3cc(N(C)C)ccc3C2=O)cc1 (stereo not shown) [ALB-113646] | – | 1.05 | –
39 | CC(C(=O)O)c1ccc(N2Cc3cc(NS(C)(=O)=O)ccc3C2=O)cc1 (stereo not shown) [ALB-113647] | – | – | 1.11
40 | CCOc1ccc2c(c1)CN(c1ccc(C(C)C(=O)O)cc1)C2=O (stereo not shown) [ALB-113649] | – | 1.13 | –
41 | CC(CBr)c1ccc(N2Cc3ccccc3C2=O)cc1 (stereo not shown) [ALB-113651] | 209 | 1.44 | –
42 | CC(C(=O)O)c1ccc(N2Cc3cc(F)ccc3C2=O)cc1 (stereo not shown) [ALB-113754] | 142 | 1.7 | –
43 | CCCc1cccc2c1C(=O)N(c1ccc(C(C)C(=O)O)cc1)C2 (stereo not shown) [ALB-113756] | 15700 | 1.33 | –
44 | CCCCc1cccc2c1C(=O)N(c1ccc(C(C)C(=O)O)cc1)C2 (stereo not shown) [ALB-113757] | – | 1.18 | –
45 | CC(CN1CCOCC1)c1ccc(N2Cc3ccccc3C2=O)cc1 (stereo not shown) [ALB-113758] | 1400 | 1.29 | –
46 | CCCCCOc1ccc2c(c1)CN(c1ccc(C(C)C(=O)O)cc1)C2=O (stereo not shown) [ALB-113759] | 510 | 1.22 | –
47 | CC(C)Oc1ccc2c(c1)CN(c1ccc(C(C)C(=O)O)cc1)C2=O (stereo not shown) [ALB-113834] | – | 1.1 | –
48 | CCCCc1ccc2c(c1)CN(c1ccc(C(C)C(=O)O)cc1)C2=O (stereo not shown) [ALB-113835] | – | 1.15 | –
49 | CC(C(=O)O)c1ccc(N2Cc3ccc(F)cc3C2=O)cc1 (stereo not shown) [ALB-113836] | 544 | 1.78 | –
50 | CC(C(=O)O)c1ccc(N2Cc3cc(OC4CCCC4)ccc3C2=O)cc1 (stereo not shown) [ALB-113963] | – | 1.14 | –

Row | Structure (SMILES) | EC50 [1] [nM] | maximal fold induction [2] | maximal fold induction (SMN2-linked luciferase reporter, average maximum fold increase)
51 | CC(C(=O)O)c1ccc(N2Cc3cc(OCC(F)(F)F)ccc3C2=O)cc1 (stereo not shown) [ALB-113964] | – | 1.08 | –
52 | C=Cc1ccc2c(c1)C(=O)N(c1ccc(C(C)C(=O)O)cc1)C2 (stereo not shown) [ALB-113965] | 79 | 1.83 | –
53 | CC(C(=O)O)c1ccc(N2Cc3ccc(OCC(F)(F)F)cc3C2=O)cc1 (stereo not shown) [ALB-113966] | 663 | 1.78 | –
54 | C/C=C/c1ccc2c(c1)C(=O)N(c1ccc(C(C)C(=O)O)cc1)C2 (stereo not shown) [ALB-114086] | 88 | 1.99 | –
55 | C/C=C(\C)c1ccc2c(c1)C(=O)N(c1ccc(C(C)C(=O)O)cc1)C2 (stereo not shown) [ALB-114087] | 226 | 1.88 | –
56 | CCC(C)c1ccc2c(c1)C(=O)N(c1ccc(C(C)C(=O)O)cc1)C2 (stereo not shown) [ALB-114088] | 78 | 2.19 | –
57 | C/C=C\c1ccc2c(c1)C(=O)N(c1ccc(C(C)COC)cc1)C2 (stereo not shown) [ALB-114089] | 902 | 1.55 | –
58 | CC(CF)c1ccc(N2Cc3ccccc3C2=O)cc1 (stereo not shown) [ALB-114090] | 214 | 1.47 | –
59 | CCCc1ccc2c(c1)C(=O)N(c1ccc(C(C)COC)cc1)C2 (stereo not shown) [ALB-114091] | 699 | 1.46 | –
60 | COc1cc2c(cc1OC)C(=O)N(c1ccc(C(C)C(=O)O)cc1)C2 (stereo not shown) [ALB-114437] | – | 1.2 | –
61 | CC(C(=O)O)c1ccc(N2Cc3ccc(CN4CCOCC4)cc3C2=O)cc1 (stereo not shown) [ALB-114438] | 1900 | 1.27 | –
62 | COCc1ccc2c(c1)C(=O)N(c1ccc(C(C)C(=O)O)cc1)C2 (stereo not shown) [ALB-114439] | 52 | 1.51 | –
63 | CC(CN)c1ccc(N2Cc3ccccc3C2=O)cc1 (stereo not shown) [ALB-114604] | 303 | 1.39 | –
64 | COc1ccc2c(c1)C(=O)N(c1ccc(C(C)CO)cc1)C2 (stereo not shown) [ALB-114606] | 181 | 1.31 | –
65 | CC(C(=O)O)c1ccc(N2Cc3ccc(C4CCCC4)cc3C2=O)cc1 (stereo not shown) [ALB-114607] | 35 | 1.51 | –
66 | CC(C(=O)O)c1ccc(N2Cc3ccc(CN(C)C)cc3C2=O)cc1 (stereo not shown) [ALB-114608] | – | 1.23 | –
67 | CC(C(=O)O)c1ccc(N2Cc3ccc(N4CCOCC4)cc3C2=O)cc1 (stereo not shown) [ALB-114738a] | – | 1.08 | –
68 | CC(C(=O)O)c1ccc(N2Cc3ccc(N4CCCC4)cc3C2=O)cc1 (stereo not shown) [ALB-114739a] | 58 | 1.55 | –
69 | CC(CF)c1ccc(N2Cc3ccc(C4CCCC4)cc3C2=O)cc1 (stereo not shown) [ALB-114740] | 822 | 1.22 | –
70 | CC(C)OCc1ccc2c(c1)C(=O)N(c1ccc(C(C)C(=O)O)cc1)C2 (stereo not shown) [ALB-114741] | – | 1.67 | –
71 | CCOCc1ccc2c(c1)C(=O)N(c1ccc(C(C)C(=O)O)cc1)C2 (stereo not shown) [ALB-114742] | 42 | 1.58 | –
72 | CCOCc1ccc2c(c1)C(=O)N(c1ccc(C(C)CO)cc1)C2 (stereo not shown) [ALB-114743] | 448 | 1.37 | –
73 | CCOCC(C)c1ccc(N2Cc3ccccc3C2=O)cc1 (stereo not shown) [ALB-114744] | – | 1.18 | –
74 | CC(C(=O)O)c1ccc(N2Cc3cc4c(cc3C2=O)OCO4)cc1 (stereo not shown) [ALB-114782] | 81 | 1.65 | –
